Laboratory results from PubChem BioAssay AID248 (DTP/NCI, 2004).
Where “and” joins values, the source holds several entries; their conditions need not be identical. Equal entries are not always repeated. Toxic doses and inconclusive results are not listed. Cut-off read from the data, not from the text of the source: active = T/C of 150% or more; inactive = T/C below 125%.

Tested on: L1210 leukemia ip in BDF1 mice, survival T/C
Assay: NCI In Vivo Anticancer Drug Screen. Data for tumor model L1210 Leukemia (intraperitoneal) in B6D2F1 (BDF1) mice
Conditions: endpoint: mean survival time, higher = longer survival
Method in brief: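 Ratio derived from survival: compound-dosed mice over vehicle-dosed mice, all bearing a transplantable tumor.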

[1] = dose: 100.0 mg/kg/injection, schedule: Q04DX003 (ip), vehicle: Klucel (hydroxypropylcellulose) (HPC)
[2] = dose: 200.0 mg/kg/injection, schedule: Q04DX003 (ip), vehicle: Klucel (hydroxypropylcellulose) (HPC)
[3] = dose: 400.0 mg/kg/injection, schedule: Q04DX003 (ip), vehicle: Klucel (hydroxypropylcellulose) (HPC)
[4] = dose: 100.0 mg/kg/injection, schedule: Q01DX001 (ip), vehicle: Klucel (hydroxypropylcellulose) (HPC)
[5] = dose: 100.0 mg/kg/injection, schedule: Q01DX009 (ip), vehicle: Klucel (hydroxypropylcellulose) (HPC)
[6] = dose: 200.0 mg/kg/injection, schedule: Q01DX001 (ip), vehicle: Klucel (hydroxypropylcellulose) (HPC)
[7] = dose: 200.0 mg/kg/injection, schedule: Q01DX009 (ip), vehicle: Klucel (hydroxypropylcellulose) (HPC)
[8] = dose: 400.0 mg/kg/injection, schedule: Q01DX001 (ip), vehicle: Klucel (hydroxypropylcellulose) (HPC)

Measured: T/C

O=C(OC(c1ccccc1)(C(F)(F)F)C(F)(F)F)c1ccccc1Sc1ccccc1
inactive: dose: 100.0 mg/kg/injection, schedule: Q01DX009 (ip), vehicle: saline with Tween-80 95 % of control | dose: 200.0 mg/kg/injection, schedule: Q01DX009 (ip), vehicle: saline with Tween-80 101 % of control | dose: 400.0 mg/kg/injection, schedule: Q01DX009 (ip), vehicle: saline with Tween-80 98 % of control

C[C@@H]1C[C@@]2(C)[C@@H](CC[C@@H]3[C@@H]2CC[C@]2(C)[C@@H](OC4CCCCO4)CC[C@@H]32)CC1=O (stereo not given in full)
inactive: dose: 100.0 mg/kg/injection, schedule: Q01DX001 (ip), vehicle: carboxymethylcellulose (CMC) 93 % of control | dose: 400.0 mg/kg/injection, schedule: Q01DX001 (ip), vehicle: carboxymethylcellulose (CMC) 88 % of control

COc1ccc(C(=O)NCCBr)cc1[N+](=O)[O-]
inactive: dose: 100.0 mg/kg/injection, schedule: Q01DX001 (ip), vehicle: saline 108 % of control | [1] 97 % of control | dose: 200.0 mg/kg/injection, schedule: Q01DX001 (ip), vehicle: saline 103 % of control | [2] 101 % of control | dose: 400.0 mg/kg/injection, schedule: Q01DX001 (ip), vehicle: saline 98 % of control | [3] 111 % of control

S=C(NCc1ccccc1)NCc1ccccc1
inactive: dose: 100.0 mg/kg/injection, schedule: Q04DX002 (ip), vehicle: Klucel (hydroxypropylcellulose) (HPC) 94 % of control and 87 % of control | dose: 200.0 mg/kg/injection, schedule: Q04DX002 (ip), vehicle: Klucel (hydroxypropylcellulose) (HPC) 87 % of control | dose: 400.0 mg/kg/injection, schedule: Q04DX002 (ip), vehicle: Klucel (hydroxypropylcellulose) (HPC) 90 % of control

O=C(O)Cn1[nH]c(=O)ccc1=O
inactive: dose: 100.0 mg/kg/injection, schedule: Q01DX001 (ip), vehicle: saline with Tween-80 103 % of control | dose: 200.0 mg/kg/injection, schedule: Q01DX001 (ip), vehicle: saline with Tween-80 103 % of control | dose: 400.0 mg/kg/injection, schedule: Q01DX001 (ip), vehicle: saline with Tween-80 102 % of control

C=CC(=O)NCNC(C)C (tested in a mixture with another compound)
inactive: dose: 12.5 mg/kg/injection, schedule: Q01DX009 (ip), vehicle: Klucel (hydroxypropylcellulose) (HPC) 97 % of control | dose: 12.5 mg/kg/injection, schedule: Q01DX009 (ip), vehicle: saline 100 % of control and 93 % of control | dose: 25.0 mg/kg/injection, schedule: Q01DX009 (ip), vehicle: Klucel (hydroxypropylcellulose) (HPC) 97 % of control | dose: 25.0 mg/kg/injection, schedule: Q01DX009 (ip), vehicle: saline 95 % of control | dose: 50.0 mg/kg/injection, schedule: Q01DX009 (ip), vehicle: Klucel (hydroxypropylcellulose) (HPC) 90 % of control | dose: 50.0 mg/kg/injection, schedule: Q01DX009 (ip), vehicle: saline 100 % of control

NNC(=O)c1ccc(Cl)cc1Nc1ccccc1
inactive: [4] 95 % of control | [5] 107 % of control | [6] 86 % of control | [7] 94 % of control | [8] 97 % of control

CC(=O)CC(=O)NCCCN1CCCCC1
inactive: dose: 12.5 mg/kg/injection, schedule: Q01DX009 (ip), vehicle: saline with Tween-80 103 % of control | dose: 12.5 mg/kg/injection, schedule: Q04DX003 (ip), vehicle: saline with Tween-80 103 % of control | dose: 25.0 mg/kg/injection, schedule: Q01DX009 (ip), vehicle: saline with Tween-80 100 % of control | dose: 25.0 mg/kg/injection, schedule: Q04DX003 (ip), vehicle: saline with Tween-80 106 % of control | dose: 50.0 mg/kg/injection, schedule: Q04DX003 (ip), vehicle: saline with Tween-80 97 % of control and 103 % of control

C#CC1(NC(=S)Nc2ccc(C)cc2)CCCCC1
inactive: dose: 100.0 mg/kg/injection, schedule: Q01DX009 (ip), vehicle: carboxymethylcellulose (CMC) 100 % of control and 92 % of control | dose: 200.0 mg/kg/injection, schedule: Q01DX009 (ip), vehicle: carboxymethylcellulose (CMC) 95 % of control and 100 % of control | dose: 400.0 mg/kg/injection, schedule: Q01DX009 (ip), vehicle: carboxymethylcellulose (CMC) 106 % of control and 113 % of control

Fc1cccc(/C=C2/c3cc(Cl)ccc3-c3c(Cl)cc(Cl)cc32)c1
inactive: [4] 93 % of control | [5] 88 % of control | [1] 91 % of control | [6] 91 % of control | [7] 89 % of control | [2] 93 % of control | [8] 88 % of control | dose: 400.0 mg/kg/injection, schedule: Q01DX009 (ip), vehicle: Klucel (hydroxypropylcellulose) (HPC) 96 % of control | [3] 88 % of control
